In US9139523B2, “5-HT2B receptor antagonists” (Janssen Pharmaceutica, NV, priority 2010, dated 2015):

How the values were obtained:
5HT3A/B = target: T1, 5HT3A/B (Homo sapiens, UniProt O95264+P46098); experiment: Competitive radioligand binding, 5HT3A/B; conditions: HEK293 membranes, 3H-GR65630 0.5 nM; read-out: pIC50 5HT3A/B (converted)
T1 construct: expressed in transfected cells; host or cells: HEK293 (membrane fraction)
T1 sequence (P46098 24-478): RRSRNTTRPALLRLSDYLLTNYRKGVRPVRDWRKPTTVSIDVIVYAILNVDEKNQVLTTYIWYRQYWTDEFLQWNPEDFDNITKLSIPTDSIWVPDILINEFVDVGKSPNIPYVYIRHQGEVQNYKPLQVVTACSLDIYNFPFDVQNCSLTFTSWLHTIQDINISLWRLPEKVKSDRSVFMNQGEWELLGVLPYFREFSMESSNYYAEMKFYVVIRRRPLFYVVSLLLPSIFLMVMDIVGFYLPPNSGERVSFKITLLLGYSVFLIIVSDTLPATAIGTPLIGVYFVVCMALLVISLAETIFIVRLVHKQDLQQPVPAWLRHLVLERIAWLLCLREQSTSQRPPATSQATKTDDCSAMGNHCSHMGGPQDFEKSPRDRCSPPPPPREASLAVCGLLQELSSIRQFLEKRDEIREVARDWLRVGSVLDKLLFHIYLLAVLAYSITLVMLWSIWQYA
T1 sequence (O95264 22-441): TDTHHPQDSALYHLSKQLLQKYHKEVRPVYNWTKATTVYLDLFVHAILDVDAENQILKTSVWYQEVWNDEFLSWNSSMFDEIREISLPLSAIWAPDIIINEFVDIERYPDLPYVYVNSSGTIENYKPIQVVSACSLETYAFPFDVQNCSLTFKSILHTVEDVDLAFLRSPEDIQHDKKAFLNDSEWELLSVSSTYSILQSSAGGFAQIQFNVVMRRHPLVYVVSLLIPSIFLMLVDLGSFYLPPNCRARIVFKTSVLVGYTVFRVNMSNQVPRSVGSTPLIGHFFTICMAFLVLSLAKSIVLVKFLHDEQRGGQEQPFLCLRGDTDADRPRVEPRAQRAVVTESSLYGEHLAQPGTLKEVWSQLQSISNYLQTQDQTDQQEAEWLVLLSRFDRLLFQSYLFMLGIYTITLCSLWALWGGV
Protocol: (§1) Competitive radioligand binding assays were used to determine the affinity of the test compounds for a particular receptor. Various concentrations of the non-labelled test compound were added to the incubation mixture with the membrane fraction, containing the receptor of interest, and a fixed low concentration (nM) of the radioligand. During the incubation the radioligand bound to the receptor, but this was inhibited by the non-labelled test compound in proportion to its binding affinity and concentration.
(§2) Cell lines were established that stably express the human variant of the receptor under investigation after transfection with the appropriate cDNA (Table 1). Transfected cells were grown under standard culture conditions, and membrane fractions were obtained upon centrifugation and homogenisation of the cells. Optimal membrane dilutions for binding studies were determined and aliquots were stored at −70° C. until use. In a 96-well plate format, the appropriate radioligand was added to the membrane preparation containing the receptor under investigation. Compound solutions were prepared in DMSO, and diluted 100-fold into the multiwell plate to a final test concentration of 10^−9 to 10^−5 M. After incubation with the test compound, the unbound radioligand was removed by filtration on G/F filters with a Filtermate 96. Microscint™ was added to the washed filter plates and the radioactivity bound to the receptor was measured by liquid scintillation counting in a TopCount (Packard). To measure the Non-Specific Binding (NSB), a high concentration of the non-radiolabeled ligand was added to wells containing the membrane fraction and the radioligand.
(§3) Using in house developed software, a best-fit curve was fitted by a minimum sum of squares method to the plot of % inhibition vs. concentration of the test compound. From this, the pIC50 value (inhibitory concentration causing 50% displacement of specific binding) was determined, as well as an estimate of the slope of the plot (Hill coefficient).

Alpha1A = target: T2, Alpha1A (Homo sapiens, UniProt P35348); experiment: Competitive radioligand binding, Alpha1A; conditions: CHO membranes, 3H-prazosin 0.25 nM; read-out: pIC50 Alpha1A (converted)
T2 construct: expressed in transfected cells; host or cells: CHO (membrane fraction)
T2 sequence (P35348 1-466): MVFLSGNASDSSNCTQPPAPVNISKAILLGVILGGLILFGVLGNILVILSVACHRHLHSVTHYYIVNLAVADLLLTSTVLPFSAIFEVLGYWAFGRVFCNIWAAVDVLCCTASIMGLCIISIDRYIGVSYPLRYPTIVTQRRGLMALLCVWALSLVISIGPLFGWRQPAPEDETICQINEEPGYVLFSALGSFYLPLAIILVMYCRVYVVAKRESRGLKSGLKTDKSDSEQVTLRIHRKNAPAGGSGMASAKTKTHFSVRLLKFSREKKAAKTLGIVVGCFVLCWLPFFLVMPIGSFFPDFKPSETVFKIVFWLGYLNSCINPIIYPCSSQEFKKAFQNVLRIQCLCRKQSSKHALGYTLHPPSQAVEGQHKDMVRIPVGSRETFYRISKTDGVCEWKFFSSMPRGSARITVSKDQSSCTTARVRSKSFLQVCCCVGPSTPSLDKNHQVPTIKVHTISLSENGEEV
Protocol: as §1, §2, §3

5HT1A = target: T3, 5HT1A (Homo sapiens, UniProt P08908); experiment: Competitive radioligand binding, 5HT1A; conditions: HEK293 membranes, 3H-8-OH-DPAT 0.5 nM; read-out: pIC50 5HT1A (converted)
T3 construct: expressed in transfected cells; host or cells: HEK293 (membrane fraction)
T3 sequence (P08908 1-422): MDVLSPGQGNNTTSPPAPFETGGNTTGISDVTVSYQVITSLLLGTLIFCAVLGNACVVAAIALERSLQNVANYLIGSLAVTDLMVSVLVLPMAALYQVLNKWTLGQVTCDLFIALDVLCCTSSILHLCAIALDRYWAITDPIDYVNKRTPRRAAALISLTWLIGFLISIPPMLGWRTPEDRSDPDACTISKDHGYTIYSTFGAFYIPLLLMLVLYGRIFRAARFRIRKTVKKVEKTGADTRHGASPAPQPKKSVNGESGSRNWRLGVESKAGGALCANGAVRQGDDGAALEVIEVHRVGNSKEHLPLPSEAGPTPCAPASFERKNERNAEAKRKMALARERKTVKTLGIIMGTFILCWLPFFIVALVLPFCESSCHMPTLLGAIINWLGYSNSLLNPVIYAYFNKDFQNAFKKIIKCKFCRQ
Protocol: as §1, §2, §3

D2L = target: T4, D2L (Homo sapiens, UniProt P14416); experiment: Competitive radioligand binding, D2L; conditions: CHO membranes, 3H-spiperone 0.2 nM; read-out: pIC50 D2L (converted)
T4 construct: expressed in transfected cells; host or cells: CHO (membrane fraction)
Protocol: as §1, §2, §3

anesthetized guinea-pig = experiment: Cardiovascular effects in the anaesthetized guinea-pig; type: in vivo; conditions: guinea pig, 0.02 mg/kg i.v. over 1 min, 15 min after onset of last vehicle infusion
Protocol: Female guinea-pigs were anesthetized with sodium pentobarbital (66 mg/kg i.p.) followed by a continuous i.v. infusion of 6 mg/h of sodium pentobarbital and prepared for measurements of the surface electrocardiogram (ECG), heart rate and mean arterial blood pressure (see De Clerck et al, Fundam. Clin. Pharm.; 2002; 16: 125-140). Compound (−)-17 was dissolved in 20% hydroxypropyl-cyclodextrin with NaOH, HCl and mannitol in pyrogen-free water and administered intravenously (0.5 ml/kg) in increasing doses (0.16, 0.32, 0.64, 1.25, 2.5 and 5 mg/kg) over a period of 5 min at 15-min intervals. Plasma concentrations of Compound (−)-17 were measured at the end of each infusion. Corresponding volumes of vehicle were administered according to the same protocol in a second group of animals.

T4 sequence (P14416 whole entry): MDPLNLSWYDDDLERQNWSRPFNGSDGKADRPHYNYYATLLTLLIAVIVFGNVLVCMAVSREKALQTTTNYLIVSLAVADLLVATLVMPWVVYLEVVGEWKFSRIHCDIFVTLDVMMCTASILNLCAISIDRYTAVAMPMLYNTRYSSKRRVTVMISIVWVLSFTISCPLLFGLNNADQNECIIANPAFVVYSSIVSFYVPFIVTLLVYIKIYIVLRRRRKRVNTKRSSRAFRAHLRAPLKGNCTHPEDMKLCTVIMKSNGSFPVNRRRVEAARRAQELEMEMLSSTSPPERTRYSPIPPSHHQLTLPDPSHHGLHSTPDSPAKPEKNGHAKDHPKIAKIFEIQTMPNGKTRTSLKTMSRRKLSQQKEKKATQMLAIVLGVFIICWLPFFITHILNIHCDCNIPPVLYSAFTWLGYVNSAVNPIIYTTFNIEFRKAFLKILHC

| Compound | IC50 (5HT3A/B) [µM] | IC50 (Alpha1A) [µM] | IC50 (5HT1A) [µM] | IC50 (D2L) [µM] | heart rate (anesthetized guinea-pig) |
| --- | --- | --- | --- | --- | --- |
| COc1cc(N)c(Cl)cc1C(=O)NC1CCN(CCCOc2ccc(F)cc2)CC1OC (centres unmarked) [Cisapride, reference compound] | 1.15 | 0.407 | 1.95 | 0.537 |  |
| CN(CCOc1ccc(NS(C)(=O)=O)cc1)CCc1ccc(NS(C)(=O)=O)cc1 [dofetilide, reference compound] |  |  |  |  | decreased |
